One molecule from patent publication US20230015823A1, “METHODS OF ADMINISTERING VOXELOTOR” (Global Blood Therapeutics, Inc., priority 2019, published 2023) can be followed below.

The nature of series [1]: Effect of food on voxelotor PK. In kind it is in vivo.
A further series has as its target OATP1B1 (Homo sapiens, UniProt Q9Y6L6). As to the kind of experiment: In vitro transporter studies: OATP1B1. In kind it is in vitro ADME.
Another series has as its target BCRP (Homo sapiens, UniProt Q9UNQ0). As to the kind of experiment: In vitro transporter studies: BCRP. In kind it is in vitro ADME.
For the next series, the target named is BSEP (Homo sapiens, UniProt O95342). As to the kind of experiment: In vitro transporter studies: BSEP. In kind it is in vitro ADME.
The next series has as its target T1, CYP2C9 (Homo sapiens, UniProt P11712).
T1 construct: endogenous in cells; host or cells: healthy subjects, in vivo
Put plainly: Effect of voxelotor on PK of CYP2C9 probe substrate S-warfarin in healthy subjects. In kind it is in vivo. The procedure:
(§1) During Period 1, subjects received a single dose of caffeine 100 mg, warfarin sodium 10 mg+vitamin K 10 mg, omeprazole 20 mg, and midazolam hydrochloride 2 mg on Day 1. During Period 2, subjects received voxelotor 900 mg QD on Days 1 and 2 followed by 600 mg QD on Day 3, a single dose of caffeine 100 mg, warfarin sodium 10 mg+vitamin K 10 mg, omeprazole 20 mg, and midazolam hydrochloride 2 mg on Day 4, and voxelotor 600 mg QD on Days 4 through 7.
(§2) Whole blood and plasma concentrations of voxelotor and plasma concentrations of caffeine, paraxanthine, S-warfarin, omeprazole, 5-hydroxyomeprazole, midazolam, and 1-hydroxymidazolam were determined using validated assays.

In a further series the target is CYP2B6 (Homo sapiens, UniProt P20813). As to the kind of experiment: In vitro studies: CYP2B6. In kind it is in vitro ADME.
Chain of CYP2B6 (P20813 whole entry): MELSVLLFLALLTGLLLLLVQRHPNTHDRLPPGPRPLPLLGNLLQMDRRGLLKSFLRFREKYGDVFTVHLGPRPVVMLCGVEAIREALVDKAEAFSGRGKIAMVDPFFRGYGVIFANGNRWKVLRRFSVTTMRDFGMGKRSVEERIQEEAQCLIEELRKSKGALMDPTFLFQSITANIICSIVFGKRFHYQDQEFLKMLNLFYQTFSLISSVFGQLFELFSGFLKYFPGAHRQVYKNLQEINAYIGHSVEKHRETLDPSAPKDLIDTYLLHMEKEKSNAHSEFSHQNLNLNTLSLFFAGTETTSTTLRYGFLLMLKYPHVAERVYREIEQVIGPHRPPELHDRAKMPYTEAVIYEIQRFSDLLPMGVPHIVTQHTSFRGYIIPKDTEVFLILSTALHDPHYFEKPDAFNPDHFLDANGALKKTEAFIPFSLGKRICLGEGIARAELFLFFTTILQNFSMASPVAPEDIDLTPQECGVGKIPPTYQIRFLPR
A further series has as its target P-gp (Homo sapiens, UniProt P08183). Put plainly: In vitro transporter studies: P-gp. In kind it is in vitro ADME.
In a further series the target is T2, CYP2C19 (Homo sapiens, UniProt P33261).
T2 construct: endogenous in cells; host or cells: healthy subjects, in vivo
T2 sequence (P33261 whole entry): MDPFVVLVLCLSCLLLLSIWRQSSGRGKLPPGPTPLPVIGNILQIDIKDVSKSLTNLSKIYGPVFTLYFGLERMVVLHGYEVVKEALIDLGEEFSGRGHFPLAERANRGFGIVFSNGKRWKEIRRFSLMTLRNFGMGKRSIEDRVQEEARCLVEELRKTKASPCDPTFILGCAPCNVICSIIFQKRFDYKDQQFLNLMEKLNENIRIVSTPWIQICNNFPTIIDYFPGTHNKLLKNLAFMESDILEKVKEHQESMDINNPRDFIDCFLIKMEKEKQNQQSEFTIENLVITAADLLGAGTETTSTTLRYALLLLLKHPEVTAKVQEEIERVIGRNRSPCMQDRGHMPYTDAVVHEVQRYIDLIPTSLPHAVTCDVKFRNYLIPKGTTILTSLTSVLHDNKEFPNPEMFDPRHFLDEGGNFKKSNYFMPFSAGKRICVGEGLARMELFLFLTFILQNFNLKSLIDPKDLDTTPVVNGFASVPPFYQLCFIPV
As to the kind of experiment: Effect of voxelotor on PK of CYP2C19 probe substrate omeprazole in healthy subjects. In kind it is in vivo. The procedure:
as §1, §2

Setting [2] is: healthy subjects, multiple doses of voxelotor 900/600 mg QD.

T1 sequence (P11712 whole entry): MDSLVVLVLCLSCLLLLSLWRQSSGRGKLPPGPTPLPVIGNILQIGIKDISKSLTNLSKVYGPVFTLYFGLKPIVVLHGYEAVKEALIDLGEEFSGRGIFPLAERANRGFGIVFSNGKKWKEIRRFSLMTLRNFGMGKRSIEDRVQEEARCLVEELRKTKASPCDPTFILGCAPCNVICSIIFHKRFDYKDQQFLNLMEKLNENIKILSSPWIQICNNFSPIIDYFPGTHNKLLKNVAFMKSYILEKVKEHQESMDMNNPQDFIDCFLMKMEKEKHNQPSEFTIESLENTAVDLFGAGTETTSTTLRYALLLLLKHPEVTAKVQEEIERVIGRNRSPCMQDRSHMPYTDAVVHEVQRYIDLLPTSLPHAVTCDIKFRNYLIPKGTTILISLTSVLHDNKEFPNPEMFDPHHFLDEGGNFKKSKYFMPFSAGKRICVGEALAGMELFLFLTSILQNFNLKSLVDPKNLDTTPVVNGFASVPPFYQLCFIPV
Chain of P-gp (P08183 whole entry): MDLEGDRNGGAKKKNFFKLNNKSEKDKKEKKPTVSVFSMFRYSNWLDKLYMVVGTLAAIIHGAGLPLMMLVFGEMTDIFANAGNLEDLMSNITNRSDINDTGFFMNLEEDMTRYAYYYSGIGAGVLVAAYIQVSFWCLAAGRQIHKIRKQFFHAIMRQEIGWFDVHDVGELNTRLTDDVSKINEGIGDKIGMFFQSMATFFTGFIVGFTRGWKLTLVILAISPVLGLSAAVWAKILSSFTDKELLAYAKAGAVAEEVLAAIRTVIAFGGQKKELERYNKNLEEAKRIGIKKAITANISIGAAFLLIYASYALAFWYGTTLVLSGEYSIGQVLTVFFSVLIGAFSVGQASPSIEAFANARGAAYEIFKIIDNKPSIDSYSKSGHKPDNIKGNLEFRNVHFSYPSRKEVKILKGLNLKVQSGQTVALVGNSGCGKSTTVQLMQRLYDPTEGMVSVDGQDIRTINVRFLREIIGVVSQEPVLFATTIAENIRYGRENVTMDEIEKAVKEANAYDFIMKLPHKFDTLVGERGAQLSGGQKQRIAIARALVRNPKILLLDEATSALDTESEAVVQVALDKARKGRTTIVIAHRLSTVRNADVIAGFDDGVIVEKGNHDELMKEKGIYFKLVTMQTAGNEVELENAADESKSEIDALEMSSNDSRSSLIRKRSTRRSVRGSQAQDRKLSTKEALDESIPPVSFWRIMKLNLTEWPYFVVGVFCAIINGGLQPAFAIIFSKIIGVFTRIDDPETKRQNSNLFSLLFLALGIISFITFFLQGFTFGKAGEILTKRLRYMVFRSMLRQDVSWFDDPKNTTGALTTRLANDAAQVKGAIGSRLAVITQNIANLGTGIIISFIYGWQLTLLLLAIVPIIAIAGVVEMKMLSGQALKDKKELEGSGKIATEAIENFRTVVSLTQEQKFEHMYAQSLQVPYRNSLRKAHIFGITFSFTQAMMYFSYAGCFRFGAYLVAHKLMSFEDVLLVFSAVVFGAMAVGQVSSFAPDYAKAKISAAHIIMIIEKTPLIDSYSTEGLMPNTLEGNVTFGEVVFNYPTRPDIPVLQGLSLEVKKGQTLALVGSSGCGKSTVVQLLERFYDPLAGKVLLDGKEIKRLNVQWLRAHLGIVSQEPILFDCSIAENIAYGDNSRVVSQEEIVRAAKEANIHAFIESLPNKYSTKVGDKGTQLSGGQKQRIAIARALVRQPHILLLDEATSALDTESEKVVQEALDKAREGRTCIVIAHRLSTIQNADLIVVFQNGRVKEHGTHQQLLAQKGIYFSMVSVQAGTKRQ
Chain of OATP1B1 (Q9Y6L6 whole entry): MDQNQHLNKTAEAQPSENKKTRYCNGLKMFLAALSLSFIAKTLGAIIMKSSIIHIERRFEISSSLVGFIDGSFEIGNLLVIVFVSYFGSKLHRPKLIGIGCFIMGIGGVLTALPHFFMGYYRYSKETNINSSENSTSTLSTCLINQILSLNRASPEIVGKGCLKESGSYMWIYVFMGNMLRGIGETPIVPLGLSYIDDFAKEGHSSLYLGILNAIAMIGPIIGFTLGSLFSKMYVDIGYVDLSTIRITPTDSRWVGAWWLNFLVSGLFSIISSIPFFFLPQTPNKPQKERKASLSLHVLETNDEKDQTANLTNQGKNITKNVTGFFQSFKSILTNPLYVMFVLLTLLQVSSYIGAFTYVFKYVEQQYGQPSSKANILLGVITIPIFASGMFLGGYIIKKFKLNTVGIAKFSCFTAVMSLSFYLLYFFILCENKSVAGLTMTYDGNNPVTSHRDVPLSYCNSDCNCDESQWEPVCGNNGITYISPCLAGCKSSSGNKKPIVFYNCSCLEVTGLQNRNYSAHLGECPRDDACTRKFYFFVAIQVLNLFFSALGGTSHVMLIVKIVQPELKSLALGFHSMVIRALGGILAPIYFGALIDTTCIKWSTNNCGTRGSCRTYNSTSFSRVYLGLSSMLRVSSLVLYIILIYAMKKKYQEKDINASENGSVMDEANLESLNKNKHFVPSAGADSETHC
Chain of BCRP (Q9UNQ0 whole entry): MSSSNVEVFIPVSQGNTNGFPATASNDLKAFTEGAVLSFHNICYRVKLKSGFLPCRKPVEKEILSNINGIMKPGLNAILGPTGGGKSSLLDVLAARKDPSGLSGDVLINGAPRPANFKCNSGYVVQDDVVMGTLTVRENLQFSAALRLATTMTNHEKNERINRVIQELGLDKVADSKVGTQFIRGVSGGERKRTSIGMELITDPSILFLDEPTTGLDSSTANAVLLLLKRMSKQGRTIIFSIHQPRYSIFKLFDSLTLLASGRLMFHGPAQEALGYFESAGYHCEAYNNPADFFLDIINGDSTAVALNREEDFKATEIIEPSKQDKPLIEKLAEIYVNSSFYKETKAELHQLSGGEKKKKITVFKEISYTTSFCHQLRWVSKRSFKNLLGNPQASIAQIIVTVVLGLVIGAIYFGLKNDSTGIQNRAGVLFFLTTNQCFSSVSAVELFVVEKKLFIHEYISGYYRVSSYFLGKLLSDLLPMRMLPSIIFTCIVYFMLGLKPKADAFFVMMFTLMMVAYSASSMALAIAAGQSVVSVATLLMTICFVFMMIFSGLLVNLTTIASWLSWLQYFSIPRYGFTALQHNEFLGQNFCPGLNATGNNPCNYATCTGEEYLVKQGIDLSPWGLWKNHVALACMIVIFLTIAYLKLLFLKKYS

As to `CC(C)n1nccc1-c1ncccc1COc1cccc(O)c1C=O` [voxelotor, 2-hydroxy-6-((2-(1-isopropyl-1H-pyrazol-5-yl)pyridin-3-yl)methoxy)benzaldehyde], in series [1] (plasma), the “increase of AUC with high-fat, high-calorie meal relative to fasted state” value was 42% and the “increase of Cmax with high-fat, high-calorie meal relative to fasted state” value amounted to 95%. Moreover, in series [1] (whole blood), the “increase of AUC with high-fat, high-calorie meal relative to fasted state” value is given as 42% and the “increase of Cmax with high-fat, high-calorie meal relative to fasted state” value is given as 45%. For the same molecule, at OATP1B1, the “inhibition of OATP1B1” value is on record as “not an inhibitor” and the “substrate of OATP1B1” value was “not a substrate”. Further, at BCRP, the “inhibition of BCRP” value is listed as “not an inhibitor” and the “substrate of BCRP” value is “not a substrate”. Also, at BSEP, the “inhibition of BSEP” value is recorded as “not an inhibitor” and the “substrate of BSEP” value was “not a substrate”. In addition, the “effect of voxelotor on PK of CYP2C9 probe substrate (S-warfarin)” value at CYP2C9 (setting [2]) was “no clinically meaningful effect”. Also, the “inhibition of CYP2C9 in vivo” value against CYP2C9 (human, in vivo) is “not”. Besides, at CYP2B6, the “induction of CYP2B6” value was “inducer”; the “inhibition of CYP2B6” value is “reversible and time-dependent inhibitor”. At P-gp, the “inhibition of P-gp” value is “not an inhibitor” and the “substrate of P-gp” value is “not a substrate”. Also, on CYP2C19 (setting [2]), the “effect of voxelotor on PK of CYP2C19 probe substrate (omeprazole)” value is reported as “no clinically meaningful effect”. The “inhibition of CYP2C19 in vivo” value against CYP2C19 (human, in vivo) is “not”.
